Results taken from patent US12202844B2, “MAP4K1 inhibitors” (Blueprint Medicines Corporation, priority 2021, dated 2025).

Columns and labels:
MAP4K1 (HPK1) = molecular target: T1, MAP4K1 (HPK1) (Homo sapiens, UniProt Q92918); assay: Inhibition of MAP4K1 biochemical enzymatic activity (EZReader 2 electrophoretic mobility shift); conditions: HPK1 (Invitrogen), S6K2tide 1.5 μM, 120 min; ATP 26 μM or 1000 μM (not given)
T1 construct: purchased Invitrogen
Source text: MAP4K1 (HPK1) and relevant off-target enzymatic activity was monitored using the Perkin Elmer electrophoretic mobility shift technology platform—the EZReader 2. […] Within the linear, steady-state phase of the kinase enzymatic reaction, the mixed pool of phosphorylated (product) and non-phosphorylated (substrate) peptides was passed through the microfluidic system of the PerkinElmer EZ Reader 2, under an applied electric potential difference. The presence of the phosphate group on the product peptide provided a difference in mass and charge between that of the substrate peptide, resulting in a separation of the substrate and product pools in the sample (Perrin et al. 2010). As the product and substrate peptide mixture passes the lasers within the instrument, these pools are detected (λex=488 nm, λem=568 nm) and resolved as separate peaks. The ratio between these peaks reflects the activity of the compound at that concentration, in that well, under those conditions.
Inhibitors were dissolved in 100% DMSO at a stock concentration of 10 mM. A 100×, 10-point, 4-fold serial dilution of each inhibitor was created in 100% DMSO either manually or on a Hamilton STAR liquid handler, starting at a relevant concentration, usually 1 mM. A volume of 0.130 μL of each concentration was transferred to the relevant wells of a 384-well plate (Greiner 781 201) in duplicate using a TTPLabtech Mosquito nano-litre dispenser. Using a Multidrop Combi, the remaining constituents of the kinase reaction were added to the 130 nL of dosed compound as follows (see table below for final reaction details):
Enzyme activity assays at the ^APPKM for ATP or 1 mM ATP: In each well of a 384-well plate, 0.1-15 nM of untreated enzyme was incubated in a total of 13 μL of buffer (100 mM HEPES pH 7.5, 0.015% Brij 35, 10 mM MgCl2, 1 mM DTT) with 1.5 μM fluorescent peptid and 20-1000 μM ATP, at 25° C., for 60-180 minutes in the presence or absence of a dosed concentration series of compound (1% DMSO final concentration). The kinase reactions were stopped by the addition of 70 μl of Stop buffer (100 mM HEPES pH 7.5, 0.015% Brij 35, 35 mM EDTA and 0.2% of Coating Reagent 3 (Caliper Lifesciences)). The plates were read on a Caliper EZReader 2 as described above.

[1] = system: Primary T Cell (expanded CD3+ T cells); assay: T cell enhancement of cytokines: IL2 measurement (HTRF) in stimulated expanded CD3+ T cells; format: cell-based, human; conditions: Homo sapiens, T-cell, 24 h, plate-bound anti-CD3 and soluble anti-CD28, 24 h, IL2 by HTRF; read-out: IL-2 Primary T Cell EC50
Experimental: T cells are isolated from whole blood of healthy donors by immunomagnetic negative selection following manufacture's protocol (StemCell Technologies, human T cell isolation kit). Purity of isolated cells is assessed by flow cytometry and yields 95-98% CD3^+ T cells. For expansion of T cells, 1×10^6 cells/well are plated in serum free cell expansion media (ThermoFisher) containing 30 U of recombinant human IL2 (R&D) and stimulated with 25 ul of CD3/CD28 beads (Invitrogen) in 24 well plates for 3-4 days. T cells are then expanded in 175 cm flasks and maintained at a cell density of 1 to 2.5×10^6 cells/ml days by addition of ⅔ of fresh media every 2-3 days. After 10-14 days, cells are frozen in BamBanker freezing media (Thermo) and stored in liquid nitrogen.
For IL2 measurement, expanded CD3^+ T cells are dispensed at 100K cells/well (cultured in X-VIVO 10 Serum-free media) and are stimulated with plate-bound anti-CD3 and soluble anti-CD28 in the presence of vehicle or compound of the disclosure at various concentrations for 24 h. As outlined in the manufacturer's protocol (Cisbio), 16 μL of conditioned media is transferred to a white 384-well low volume plate. Following a 24 h incubation with the anti-IL2 antibodies, the homogenous time resolved fluorescence (HTRF) is measured.

T1 sequence (Q92918 whole entry): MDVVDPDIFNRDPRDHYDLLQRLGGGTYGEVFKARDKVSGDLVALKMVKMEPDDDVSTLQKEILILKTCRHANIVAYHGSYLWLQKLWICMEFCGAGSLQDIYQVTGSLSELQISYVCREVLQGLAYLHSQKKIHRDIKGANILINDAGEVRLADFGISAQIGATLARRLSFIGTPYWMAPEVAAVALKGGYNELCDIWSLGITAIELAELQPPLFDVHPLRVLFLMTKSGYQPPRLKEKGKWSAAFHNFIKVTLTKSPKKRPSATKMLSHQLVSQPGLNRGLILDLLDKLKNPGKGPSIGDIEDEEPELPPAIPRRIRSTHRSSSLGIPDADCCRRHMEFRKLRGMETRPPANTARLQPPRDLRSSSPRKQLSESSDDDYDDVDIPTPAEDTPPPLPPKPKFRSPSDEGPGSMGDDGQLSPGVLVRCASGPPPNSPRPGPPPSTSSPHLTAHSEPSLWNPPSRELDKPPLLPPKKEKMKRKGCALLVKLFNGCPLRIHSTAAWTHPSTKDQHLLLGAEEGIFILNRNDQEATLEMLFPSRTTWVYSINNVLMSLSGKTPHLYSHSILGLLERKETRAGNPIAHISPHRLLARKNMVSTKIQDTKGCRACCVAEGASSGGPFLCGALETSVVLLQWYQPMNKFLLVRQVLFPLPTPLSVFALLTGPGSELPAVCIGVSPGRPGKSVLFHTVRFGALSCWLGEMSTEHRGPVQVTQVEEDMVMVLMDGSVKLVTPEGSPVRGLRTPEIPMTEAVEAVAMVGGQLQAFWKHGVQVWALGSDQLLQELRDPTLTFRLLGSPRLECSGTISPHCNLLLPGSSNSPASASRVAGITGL

IC50 (MAP4K1 (HPK1)) [nM]	EC50 [1] [nM]	Compound
0.21	23	CC[C@@](C)(N)c1cnc(O[C@H](C)C[C@@H](C)S(C)(=O)=O)c2cnc(Nc3ccc4c(n3)C(C)(C)COC4=O)cc12 [Compound 88]
0.13	29	CC[C@@](C)(N)c1cnc(O[C@H](C)C[C@@H](C)S(C)(=O)=O)c2cnc(Nc3ccc4c(n3)CC(C)(C)OC4=O)cc12 [Compound 87]
0.16	34	COC[C@@](C)(N)c1cnc(O[C@H]2C[C@@H](S(C)(=O)=O)C2)c2cnc(Nc3ccc4c(n3)[C@@H](C)C(C)(C)OC4=O)cc12 [Compound 123]
0.1	18	C[C@@H]1OC(=O)c2ccc(Nc3cc4c(C(C)(C)N)cnc(O[C@H]5C[C@@H](S(=O)(=O)N(C)C)C5)c4cn3)nc2[C@H]1C [Compound 81]
0.36	34	C[C@H](CCS(C)(=O)=O)Oc1ncc(C(C)(C)N)c2cc(Nc3ccc4c(n3)[C@@H](C)C(C)(C)OC4=O)ncc12 (single isomer, unassigned) [Compound 55]
0.12	39	C[C@@H]1c2nc(Nc3cc4c(C(C)(C)N)cnc(OC5CS(=O)(=O)C5)c4cn3)ccc2C(=O)OC1(C)C [Compound 3]
0.14	15	CC[C@@](C)(N)c1cnc(O[C@H](C)CCS(=O)(=O)CC)c2cnc(Nc3ccc4c(n3)[C@@H](C)[C@H](C)OC4=O)cc12 (single isomer, unassigned) [Compound 92]
0.13	25	CCS(=O)(=O)C[C@H]1C[C@@H](Oc2ncc(C(C)(C)N)c3cc(Nc4ccc5c(n4)[C@@H](C)C(C)(C)OC5=O)ncc23)C1 (single isomer, unassigned) [Compound 112]
0.79		C[C@@H]1[C@@H](Oc2ncc(C(C)(C)N)c3cc(Nc4ccc5c(n4)[C@@H](C)[C@H](C)OC5=O)ncc23)C[C@H]1S(C)(=O)=O (single isomer, unassigned) [Compound 30]
0.12		CCS(=O)(=O)C[C@H]1C[C@H](Oc2ncc(C(C)(C)N)c3cc(Nc4ccc5c(n4)[C@@H](C)C(C)(C)OC5=O)ncc23)C1 (single isomer, unassigned) [Compound 111]
9.8		C[C@@H]1c2nc(Nc3cc4c(C(C)(C)N)cnc(O[C@H](CCS(C)(=O)=O)C(F)(F)F)c4cn3)ccc2C(=O)OC1(C)C (single isomer, unassigned) [Compound 173]
0.2		CCC[C@@](C)(N)c1cnc(O[C@H](C)C[C@@H](C)S(C)(=O)=O)c2cnc(Nc3ccc4c(n3)[C@@H](C)C(C)(C)OC4=O)cc12 (single isomer, unassigned) [Compound 142]
0.1		CC[C@@](C)(N)c1cnc(O[C@H]2C[C@@H](S(C)(=O)=O)C2)c2cnc(Nc3ccc4c(n3)C3(CC3)[C@@H](C)OC4=O)cc12 (single isomer, unassigned) [Compound 58]
0.15		CC(C)(N)c1cnc(O[C@H]2C[C@@H](S(C)(=O)=O)C2)c2cnc(Nc3ccc4c(n3)C3(CC3)C(C)(C)OC4=O)cc12 [Compound 59]
2.11		CC[C@@](C)(N)c1cnc(O[C@@H](C)CCS(C)(=O)=O)c2cnc(Nc3ccc4c(n3)C(C)(C)[C@H](C)OC4=O)cc12 (single isomer, unassigned) [Compound 97]
0.22		C[C@H](C[C@@H](C)S(C)(=O)=O)Oc1ncc([C@@](C)(N)C2CC2)c2cc(Nc3ccc4c(n3)CC(C)(C)OC4=O)ncc12 (single isomer, unassigned) [Compound 108]

IC50 (MAP4K1 (HPK1)) [nM]	EC50 [1] [nM]	Compound
0.24		CCS(=O)(=O)[C@H](C)C[C@@H](C)Oc1ncc(C(C)(C)N)c2cc(Nc3ccc4c(n3)[C@@H](C)[C@H](C)OC4=O)ncc12 [Compound 89]
0.15		C[C@H](C[C@@H](C)S(C)(=O)=O)Oc1ncc([C@@](C)(N)C2CC2)c2cc(Nc3ccc4c(n3)[C@@H](C)[C@H](C)OC4=O)ncc12 (single isomer, unassigned) [Compound 109]
0.94		C[C@H](C[C@H]1CCCS1(=O)=O)Oc1ncc(C(C)(C)N)c2cc(Nc3ccc4c(n3)[C@@H](C)C(C)(C)OC4=O)ncc12 (single isomer, unassigned) [Compound 161]
0.56		C[C@@H]1OC(=O)c2ccc(Nc3cc4c(C(C)(C)N)cnc(O[C@@H]5CC[C@@H](S(C)(=O)=O)C5)c4cn3)nc2[C@H]1C (single isomer, unassigned) [Compound 34]
0.18		CCC[C@@](C)(N)c1cnc(O[C@H](C)C[C@@H](C)S(C)(=O)=O)c2cnc(Nc3ccc4c(n3)[C@@H](C)[C@H](C)OC4=O)cc12 (single isomer, unassigned) [Compound 125]
0.31		CC[C@@](C)(N)c1cnc(O[C@H]2C[C@@H](S(C)(=O)=O)C2)c2cnc(Nc3ccc4c(n3)[C@H](C)COC4=O)cc12 (single isomer, unassigned) [Compound 8]
0.22		CC[C@@](C)(N)c1cnc(O[C@@H](C)CCS(=O)(=O)C2CC2)c2cnc(Nc3ccc4c(n3)[C@@H](C)[C@H](C)OC4=O)cc12 (single isomer, unassigned) [Compound 106]
1.1		CC[C@@](C)(N)c1cnc(O[C@@H](C)CCS(C)(=O)=O)c2cnc(Nc3ccc4c(n3)C(C)(C)[C@@H](C)OC4=O)cc12 [Compound 177]
0.21		C[C@H](C[C@@H](C)S(C)(=O)=O)Oc1ncc([C@@](C)(N)C2CC2)c2cc(Nc3ccc4c(n3)[C@@H](C)C(C)(C)OC4=O)ncc12 (single isomer, unassigned) [Compound 137]
0.28		C[C@@H]1OC(=O)c2ccc(Nc3cc4c(C(C)(C)N)cnc(O[C@H]5C[C@H](S(C)(=O)=O)C5)c4cn3)nc2[C@H]1C [Compound 14]
1.15		COC[C@@](C)(N)c1cnc(O[C@H](C)C[C@@H](C)S(C)(=O)=O)c2cnc(Nc3ccc4c(n3)C3(CC3)[C@H](C)OC4=O)cc12 (single isomer, unassigned) [Compound 165]
0.92		CC[C@@H](CCS(C)(=O)=O)Oc1ncc([C@](C)(N)CC)c2cc(Nc3ccc4c(n3)[C@@H](C)[C@H](C)OC4=O)ncc12 (single isomer, unassigned) [Compound 83]
0.74		CC[C@@H](CCS(C)(=O)=O)Oc1ncc([C@](C)(N)CC)c2cc(Nc3ccc4c(n3)[C@@H](C)[C@H](C)OC4=O)ncc12 (single isomer, unassigned) [Compound 84]
0.46		CC[C@@](C)(N)c1cnc(O[C@@H](C)CCS(C)(=O)=O)c2cnc(Nc3ccc4c(n3)C3(CC3)[C@@H](C)OC4=O)cc12 (single isomer, unassigned) [Compound 147]
23.3		C[C@@H]1OC(=O)c2ccc(Nc3cc4c(C(C)(C)N)cnc(O[C@H](CCS(C)(=O)=O)C(F)(F)F)c4cn3)nc2[C@H]1C (single isomer, unassigned) [Compound 175]

Compound	IC50 (MAP4K1 (HPK1)) [nM]	EC50 [1] [nM]
C[C@@H]1c2nc(Nc3cc4c(C(N)C5CC5)cnc(O[C@H]5C[C@@H](S(C)(=O)=O)C5)c4cn3)ccc2C(=O)OC1(C)C (single isomer, unassigned) [Compound 62, (R)-2-((5-((S or R)-Amino(cyclopropyl)methyl)-8-(cis-3-(methylsulfonyl)cyclobutoxy)-2,7-naphthyridin-3-yl)amino)-7,7,8-trimethyl-7,8-dihydro-5H-pyrano[4,3-b]pyridin-5-one]	0.33	76
